# Assay results: PubChem BioAssay (NCI)
#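 In this assay, cells in 96-well plates receive the compound at five concentrations for 48 hours. Endpoints are linearly interpolated between the surrounding concentrations. GI50 = concentration required for 50% inhibition of growth. The concentration for full growth arrest is given as TGI.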
# Columns and labels:
# Test in all cases: growth of human tumour cells (NCI), 48 h
# [1] = tested on: 786-0 renal
# [2] = tested on: A498 renal
# [3] = tested on: A549 NSCLC
# [4] = tested on: ACHN renal
# [5] = tested on: BT-549 breast
# [6] = tested on: CAKI-1 renal
# [7] = tested on: COLO 205 colon
# [8] = tested on: DU-145 prostate
# [9] = tested on: EKVX NSCLC
# [10] = tested on: HCC-2998 colon
# [11] = tested on: HCT-116 colon
# [12] = tested on: HCT-15 colon
# [13] = tested on: HOP-62 NSCLC
# [14] = tested on: HOP-92 NSCLC
# [15] = tested on: HS 578T breast
# [16] = tested on: HT29 colon
# [17] = tested on: IGROV1 ovarian
# [18] = tested on: K-562 leukemia
# [19] = tested on: KM12 colon
# [20] = tested on: LOX IMVI melanoma
# [21] = tested on: M14 melanoma
# [22] = tested on: MALME-3M melanoma
# [23] = tested on: MCF7 breast
# [24] = tested on: MDA-MB-231 breast
# [25] = tested on: MDA-MB-435
# [26] = tested on: MDA-N
# [27] = tested on: MOLT-4 leukemia
# [28] = tested on: NCI-H226 lung
# [29] = tested on: NCI-H23 lung
# [30] = tested on: NCI-H460 lung
# [31] = tested on: NCI-H522 lung
# [32] = tested on: NCI/ADR-RES ovarian
# [33] = tested on: OVCAR-3 ovarian
# [34] = tested on: OVCAR-4 ovarian
# [35] = tested on: OVCAR-5 ovarian
# [36] = tested on: OVCAR-8 ovarian
# [37] = tested on: PC-3 prostate
# [38] = tested on: RPMI-8226 leukemia
# [39] = tested on: RXF 393 renal
# [40] = tested on: SF-268 CNS
# [41] = tested on: SF-295 CNS
# [42] = tested on: SF-539 CNS
# [43] = tested on: SK-MEL-2 melanoma
# [44] = tested on: SK-MEL-28 melanoma
# [45] = tested on: SK-MEL-5 melanoma
# [46] = tested on: SK-OV-3 ovarian
# [47] = tested on: SN12C renal
# [48] = tested on: SNB-19 CNS
# [49] = tested on: SNB-75 CNS
# [50] = tested on: SR leukemia
# [51] = tested on: SW-620 colon
# [52] = tested on: T-47D breast
# [53] = tested on: TK-10 renal
# [54] = tested on: U251 CNS
# [55] = tested on: UACC-257 melanoma
# [56] = tested on: UACC-62 melanoma
# [57] = tested on: UO-31 renal
smiles,measurement,setting,value
C[n+]1c2cc(N)ccc2cc2ccc(N)cc21 (tested in a mixture with another compound),GI50,[1],320 nM
same,TGI,[1],2290 nM
same,GI50,[2],133 nM
same,TGI,[2],515 nM
same,GI50,[3],74.9 nM
same,TGI,[3],10.1 µM
same,GI50,[4],304 nM
same,TGI,[4],3.59 µM
same,GI50,[5],624 nM
same,TGI,[5],5.25 µM
same,GI50,[6],429 nM
same,TGI,[6],3.54 µM
same,GI50,[7],148 nM
same,TGI,[7],1300 nM
same,GI50,[8],584 nM
same,TGI,[8],4.88 µM
same,GI50,[9],261 nM
same,TGI,[9],1770 nM
same,GI50,[10],221 nM
same,TGI,[10],1440 nM
same,GI50,[11],345 nM
same,GI50,[12],512 nM
same,TGI,[12],4.71 µM
same,GI50,[13],630 nM
same,TGI,[13],5.37 µM
same,GI50,[14],273 nM
same,TGI,[14],1090 nM
same,GI50,[15],687 nM
same,TGI,[15],3.56 µM
same,GI50,[16],431 nM
same,TGI,[16],3.87 µM
same,GI50,[17],140 nM
same,TGI,[17],1480 nM
same,GI50,[18],200 nM
same,TGI,[18],1250 nM
same,GI50,[19],210 nM
same,TGI,[19],1370 nM
same,GI50,[20],307 nM
same,TGI,[20],1460 nM
same,GI50,[21],1040 nM
same,TGI,[21],5.21 µM
same,GI50,[22],258 nM
same,TGI,[22],1040 nM
same,GI50,[23],372 nM
same,TGI,[23],17.9 µM
same,GI50,[24],618 nM
same,TGI,[24],2500 nM
same,GI50,[25],615 nM
same,TGI,[25],2100 nM
same,GI50,[26],640 nM
same,TGI,[26],2060 nM
same,GI50,[27],209 nM
same,TGI,[27],746 nM
same,GI50,[28],291 nM
same,TGI,[28],1790 nM
same,GI50,[29],292 nM
same,TGI,[29],1430 nM
same,GI50,[30],269 nM
same,GI50,[31],217 nM
same,TGI,[31],839 nM
same,GI50,[32],746 nM
same,TGI,[32],4.84 µM
same,GI50,[33],1160 nM
same,TGI,[33],8.38 µM
same,GI50,[34],646 nM
same,TGI,[34],2680 nM
same,GI50,[35],405 nM
same,TGI,[35],11.1 µM
same,GI50,[36],377 nM
same,TGI,[36],2230 nM
same,GI50,[37],332 nM
same,TGI,[37],12.9 µM
same,GI50,[38],345 nM
same,TGI,[38],1680 nM
same,GI50,[39],1120 nM
same,TGI,[39],3.41 µM
same,GI50,[40],265 nM
same,TGI,[40],1290 nM
same,GI50,[41],809 nM
same,TGI,[41],4.62 µM
same,GI50,[42],498 nM
same,TGI,[42],6.22 µM
same,GI50,[43],1620 nM
same,TGI,[43],15.3 µM
same,GI50,[44],1330 nM
same,TGI,[44],7.48 µM
same,GI50,[45],616 nM
same,TGI,[45],2250 nM
same,GI50,[46],1350 nM
same,TGI,[46],6.15 µM
same,GI50,[47],326 nM
same,TGI,[47],1750 nM
same,GI50,[48],578 nM
same,TGI,[48],3.94 µM
same,GI50,[49],314 nM
same,TGI,[49],1380 nM
same,GI50,[50],169 nM
same,TGI,[50],537 nM
same,GI50,[51],79.1 nM
same,TGI,[51],6.2 µM
same,GI50,[52],330 nM
same,TGI,[52],3.02 µM
same,GI50,[53],1040 nM
same,TGI,[53],7.49 µM
same,GI50,[54],448 nM
same,TGI,[54],3.65 µM
same,GI50,[55],337 nM
same,TGI,[55],2040 nM
same,GI50,[56],435 nM
same,TGI,[56],1940 nM
same,GI50,[57],106 nM
same,TGI,[57],598 nM
